Source: paper PMC11357638 (Molecules, 2024)
Substitutions are numbered along the chain they refer to. Where two headings read alike, the source gives them in different places. Values belong to the molecule of their own block, whether it stands above or below them.

Tests used:
hTRPV3 single channel = biological target: T1, hTRPV3 single channel (Homo sapiens, UniProt Q8NET8); experiment: Inside-out single-channel recording of hTRPV3; type: cell-based; conditions: −60 mV
T1 construct: expressed in transfected cells; host or cells: HEK293T
T1 sequence (Q8NET8 1-790): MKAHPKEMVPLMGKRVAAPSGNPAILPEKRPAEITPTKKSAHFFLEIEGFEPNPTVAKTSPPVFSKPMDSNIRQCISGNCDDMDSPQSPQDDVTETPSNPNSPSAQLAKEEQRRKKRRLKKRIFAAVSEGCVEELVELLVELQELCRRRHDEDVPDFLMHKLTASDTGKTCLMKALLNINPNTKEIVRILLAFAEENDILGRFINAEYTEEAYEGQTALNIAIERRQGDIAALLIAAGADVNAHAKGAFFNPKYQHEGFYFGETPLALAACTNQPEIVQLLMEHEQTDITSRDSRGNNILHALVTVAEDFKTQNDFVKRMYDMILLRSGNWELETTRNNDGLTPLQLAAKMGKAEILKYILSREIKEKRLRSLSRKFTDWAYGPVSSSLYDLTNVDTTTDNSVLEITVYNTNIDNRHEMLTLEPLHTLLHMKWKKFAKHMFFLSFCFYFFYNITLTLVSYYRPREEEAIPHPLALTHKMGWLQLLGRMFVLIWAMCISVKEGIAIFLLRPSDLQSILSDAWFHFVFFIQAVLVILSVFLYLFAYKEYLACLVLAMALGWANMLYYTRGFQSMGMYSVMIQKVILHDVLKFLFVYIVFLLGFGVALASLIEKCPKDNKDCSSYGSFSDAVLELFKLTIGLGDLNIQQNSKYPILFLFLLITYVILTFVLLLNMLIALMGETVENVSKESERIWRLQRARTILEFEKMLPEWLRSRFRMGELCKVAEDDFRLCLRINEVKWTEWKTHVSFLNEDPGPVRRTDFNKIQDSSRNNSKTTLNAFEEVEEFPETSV

hTRPV3 T636A mutant = biological target: T2, hTRPV3 T636A mutant (Homo sapiens, UniProt Q8NET8, T636A); experiment: Whole-cell patch-clamp of hTRPV3 T636A mutant in HEK293T cells; type: cell-based
T2 construct: expressed in transfected cells; host or cells: HEK293T
T2 sequence (Q8NET8 1-790 T636A): T1 sequence (Q8NET8 1-790) with T636A

hTRPV3 I637A mutant = biological target: T3, hTRPV3 I637A mutant (Homo sapiens, UniProt Q8NET8, I637A); experiment: Whole-cell patch-clamp of hTRPV3 I637A mutant in HEK293T cells; type: cell-based; conditions: I637A hTRPV3, 50 μM 2-APB, +80 mV, Hill fit; read-out: IC50, inhibition of I637A mutant outward currents
T3 construct: expressed in transfected cells; host or cells: HEK293T
T3 sequence (Q8NET8 1-790 I637A): T1 sequence (Q8NET8 1-790) with I637A

[1] = biological target: T4, human TRPV3 (hTRPV3) channel (Homo sapiens, UniProt Q8NET8); experiment: Whole-cell patch-clamp of hTRPV3 currents in transfected HEK293T cells; type: cell-based
T4 construct: expressed in transfected cells; host or cells: HEK293T
T4 sequence (Q8NET8 1-790): T1 sequence (Q8NET8 1-790)

TRPV3 = conditions: read-out: IC50, TRPV3 inhibition; cited from earlier work
[2] = agonist carvacrol at 300 μM alone

open frequency (Freq) (hTRPV3 single channel; agonist 2-APB 50 μM alone): 75.05 ± 6.63 Hz
single-channel conductance (hTRPV3 single channel; agonist 2-APB 50 μM alone): 161.6 ± 3.8 pS
single-channel open probability (POPEN) (hTRPV3 single channel; agonist 2-APB 50 μM alone): 0.72 ± 0.06
Molecule: NCCOB(c1ccccc1)c1ccccc1 [2-APB, 2-aminoethoxydiphenylborate]

IC50 (hTRPV3 T636A mutant; T636A hTRPV3, 50 μM 2-APB, +80 mV, Hill fit, read-out: IC50, inhibition of T636A mutant outward currents): 417 ± 45.1 µM
IC50 (hTRPV3 I637A mutant): 522 ± 43.8 µM
IC50 ([1]; WT hTRPV3 in HEK293T, whole-cell, activated by 50 μM 2-APB, at +80 mV, Hill fit, mean ± SD, read-out: IC50, inhibition of hTRPV3 currents): 410 ± 57.9 µM
Molecule: COC(=O)/C=C/c1ccc(O)c(O)c1 [CAMC, caffeic acid methyl caffeate]

Molecule: O=C(/C=C/c1ccc(O)c(O)c1)OCCc1ccccc1 [CAPE, caffeic acid phenethyl ester]
IC50 (hTRPV3 T636A mutant): 506 ± 57.3 µM
IC50 [1]: 277 ± 41.9 µM

Molecule: Cc1ccc(C(C)C)cc1O [carvacrol]
open frequency (Freq) (hTRPV3 single channel; [2]): 53.55 ± 7.27 Hz
single-channel conductance (hTRPV3 single channel; [2]): 179.4 ± 12.8 pS
single-channel open probability (POPEN) (hTRPV3 single channel; [2]): 0.56 ± 0.05

Molecule: O=C(/C=C/c1ccc(O)c(O)c1)O[C@@H]1C[C@](O)(C(=O)O)C[C@@H](OC(=O)/C=C/c2ccc(O)c(O)c2)[C@H]1O [isochlorogenic acid A]
IC50 (TRPV3): 2.7 ± 1.3 µM

Molecule: O=C(/C=C/c1ccc(O)c(O)c1)O[C@@H]1[C@@H](OC(=O)/C=C/c2ccc(O)c(O)c2)C[C@@](O)(C(=O)O)C[C@@H]1O [isochlorogenic acid B]
IC50 (TRPV3): 0.9 ± 0.3 µM

Molecule: C[C@@H]1O[C@@H](O[C@@H]2[C@@H](O)[C@H](OCCc3ccc(O)c(O)c3)O[C@H](CO)[C@H]2OC(=O)/C=C/c2ccc(O)c(O)c2)[C@H](O)[C@H](O)[C@H]1O [verbascoside]
IC50 (TRPV3): 14.1 ± 3.3 µM

Molecule: forsythiaside B
IC50 (TRPV3): 6.7 ± 0.7 µM
